Experiments:
[1] = system: antibodies in sera from SARS patients (sera 1a, 1b, 2, 6, 37, 62, London, SARS-yellow, SARS-green); assay type: binding, human; parameters: Binding of serum 6 to linear peptides of protein X1 of SARS-CoV Urbani / Binding of serum 37 to linear peptides of protein X1 of SARS-CoV Urbani / Binding of serum 6 to looped/cyclic peptide (PEPSCAN-ELISA) / Binding of serum 37 to looped/cyclic peptide (PEPSCAN-ELISA) / Binding of serum 37 to looped/cyclic peptides of protein X1 of SARS-CoV Urbani / Binding of serum 6 to linear peptides of protein X2 / Binding of serum 37 to linear peptides of protein X2 / Binding of serum 37 to looped/cyclic peptides of protein X2 of SARS-CoV Urbani / Binding of serum 6 to linear peptides of protein M of SARS-CoV Urbani / Binding of serum 37 to linear peptides of protein M of SARS-CoV Urbani / Binding of serum 6 to looped/cyclic peptides of protein M of SARS-CoV Urbani / Binding of serum 37 to looped/cyclic peptides of protein M of SARS-CoV Urbani / Binding of serum 6 to linear peptides of protein X3 of SARS-CoV Urbani / Binding of serum 37 to linear peptides of protein X3 of SARS-CoV Urbani / Binding of serum 37 to looped/cyclic peptides of protein X3 of SARS-CoV Urbani / Binding of serum 6 to linear peptides of protein X4 of SARS-CoV Urbani / Binding of serum 37 to linear peptides of protein X4 of SARS-CoV Urbani / Binding of serum 37 to looped/cyclic peptides of protein X4 of SARS-CoV Urbani / Binding of serum 6 to linear peptides of protein X5 of SARS-CoV Urbani / Binding of serum 37 to linear peptides of protein X5 of SARS-CoV Urbani / Binding of serum 37 to looped/cyclic peptides of protein X5 of SARS-CoV Urbani / Binding of serum 6 to linear peptides of protein N of SARS-CoV Urbani / Binding of serum 37 to linear peptides of protein N of SARS-CoV Urbani / Binding of serum 6 to linear peptide (PEPSCAN-ELISA) / Binding of serum 1a to looped/cyclic peptides of protein N of SARS-CoV Urbani / Binding of serum 1b to looped/cyclic peptides of protein N of SARS-CoV Urbani / Binding of serum 2 to looped/cyclic peptides of protein N of SARS-CoV Urbani / Binding of serum 6 to looped/cyclic peptides of protein N of SARS-CoV Urbani / Binding of serum 37 to looped/cyclic peptides of protein N of SARS-CoV Urbani / Binding of serum 62 to looped/cyclic peptides of protein N of SARS-CoV Urbani / Binding of serum London to looped/cyclic peptides of protein N of SARS-CoV Urbani / Binding of serum SARS-green to looped/cyclic peptides of protein N of SARS-CoV Urbani: unit not given here
[2] = system: control sera (pooled serum of ten healthy LUMC hospital workers; commercial negative donor pooled serum from the Dutch bloodbank); assay type: binding, human; parameters: Binding of Control serum LUMC to linear peptides / Binding of Control serum Blood-bank to linear peptides / Binding of Control serum LUMC to looped peptides / Binding of Control Serum Blood-Bank to Looped peptides / Binding of Control serum LUMC to linear peptides of the protein M of SARS-CoV Urbani / Binding of Control serum Blood-bank to linear peptides of the protein M of SARS-CoV Urbani / Binding of Control serum LUMC to looped peptides of the protein M of SARS-CoV Urbani / Binding of Control Serum Blood-Bank to Looped peptides of the protein M of SARS-CoV Urbani: unit not given here
[3] = system: rabbit serum obtained by immunizing a rabbit with the SARS-CoV strain Frankfurt 1; assay type: binding; parameters: Binding of a rabbit serum to linear peptides / Binding of a rabbit serum to looped peptides / Rabbit serum linear peptides / Rabbit serum looped peptides / Binding of a rabbit serum to linear peptides of protein N of SARS-CoV Urbani (Rabbit serum linear peptides) / Binding of a rabbit serum to looped/cyclic peptides of protein N of SARS-CoV Urbani (Rabbit serum looped peptides): unit not given here

PAGGALIARCWYLHE
0.7: Binding of serum 37 to looped/cyclic peptides of protein X5 of SARS-CoV Urbani [1] | Binding of serum 62 to looped/cyclic peptides of protein X5 of SARS-CoV Urbani [1] | Binding of serum London to linear peptides of protein X5 of SARS-CoV Urbani [1] | Binding of Control serum Blood-bank to linear peptides [2]
0.4: Binding of serum 6 to looped/cyclic peptides of protein X5 of SARS-CoV Urbani [1] | Binding of Control serum LUMC to linear peptides [2]
0.9: Binding of serum 1b to linear peptides of protein X5 of SARS-CoV Urbani [1] | Binding of serum 37 to linear peptides of protein X5 of SARS-CoV Urbani [1] | Binding of serum 62 to linear peptides of protein X5 of SARS-CoV Urbani [1] | Binding of serum SARS-green to linear peptides of protein X5 of SARS-CoV Urbani [1]
0.6: Binding of serum 1b to looped/cyclic peptides of protein X5 of SARS-CoV Urbani [1] | Binding of serum 2 to linear peptides of protein X5 of SARS-CoV Urbani [1] | Binding of serum 2 to looped/cyclic peptides of protein X5 of SARS-CoV Urbani [1] | Binding of serum SARS-green to looped/cyclic peptides of protein X5 of SARS-CoV Urbani [1]
0.3: Binding of serum London to looped/cyclic peptides of protein X5 of SARS-CoV Urbani [1] | Binding of serum SARS-yellow to linear peptides of protein X5 of SARS-CoV Urbani [1]
0.8: Binding of serum 1a to linear peptides of protein X5 of SARS-CoV Urbani [1] | Binding of serum 1a to looped/cyclic peptides of protein X5 of SARS-CoV Urbani [1] | Binding of serum 6 to linear peptides of protein X5 of SARS-CoV Urbani [1] | Binding of Control Serum Blood-Bank to Looped peptides [2]
0.5: Binding of serum SARS-yellow to looped/cyclic peptides of protein X5 of SARS-CoV Urbani [1] | Binding of Control serum LUMC to looped peptides [2] | Rabbit serum linear peptides [3] | Rabbit serum looped peptides [3]

HITVSQIQLSLLKVT
0.7: Binding of serum 37 to linear peptides of protein X2 [1] | Binding of a rabbit serum to linear peptides [3]
0.2: Binding of serum SARS-green to linear peptides of protein X2 [1]
0.6: Binding of serum 1a to linear peptides of protein X2 [1] | Binding of serum 62 to looped/cyclic peptides of protein X2 of SARS-CoV Urbani [1] | Binding of serum SARS-yellow to looped/cyclic peptides of protein X2 of SARS-CoV Urbani [1] | Binding of Control Serum Blood-Bank to Looped peptides [2] | Binding of Control serum Blood-bank to linear peptides [2]
0.8: Binding of serum London to looped/cyclic peptides of protein X2 of SARS-CoV Urbani [1] | Binding of serum SARS-yellow to linear peptides of protein X2 [1] | Binding of Control serum LUMC to linear peptides [2]
0.5: Binding of serum 1a to looped/cyclic peptides of protein X2 of SARS-CoV Urbani [1] | Binding of serum 1b to linear peptides of protein X2 [1] | Binding of serum 1b to looped/cyclic peptides of protein X2 of SARS-CoV Urbani [1] | Binding of serum 2 to linear peptides of protein X2 [1] | Binding of serum 2 to looped/cyclic peptides of protein X2 of SARS-CoV Urbani [1] | Binding of serum 6 to linear peptides of protein X2 [1] | Binding of serum 37 to looped/cyclic peptides of protein X2 of SARS-CoV Urbani [1] | Binding of serum 62 to linear peptides of protein X2 [1] | Binding of Control serum LUMC to looped peptides [2]
0.4: Binding of serum 6 to looped/cyclic peptides of protein X2 of SARS-CoV Urbani [1] | Binding of serum London to linear peptides of protein X2 [1] | Binding of serum SARS-green to looped/cyclic peptides of protein X2 of SARS-CoV Urbani [1] | Binding of a rabbit serum to looped peptides [3]

LPFGWLVIGVAFLAV
0.8: Binding of serum 1a to linear peptides of protein X1 of SARS-CoV Urbani [1] | Binding of serum 62 to linear peptides of protein X1 of SARS-CoV Urbani [1]
0.4: Binding of serum 2 to looped/cyclic peptide (PEPSCAN-ELISA) [1] | Binding of Control serum LUMC to looped peptides [2]
0.6: Binding of serum 1b to linear peptides of protein X1 of SARS-CoV Urbani [1] | Binding of serum 37 to looped/cyclic peptide (PEPSCAN-ELISA) [1] | Binding of serum 62 to looped/cyclic peptide (PEPSCAN-ELISA) [1]
0.5: Binding of serum 1a to looped/cyclic peptide (PEPSCAN-ELISA) [1] | Binding of serum 6 to linear peptides of protein X1 of SARS-CoV Urbani [1] | Binding of Control Serum Blood-Bank to Looped peptides [2] | Binding of a rabbit serum to looped peptides [3]
0.3: Binding of serum 1b to looped/cyclic peptide (PEPSCAN-ELISA) [1] | Binding of serum 6 to looped/cyclic peptide (PEPSCAN-ELISA) [1] | Binding of serum London to linear peptides of protein X1 of SARS-CoV Urbani [1] | Binding of serum SARS-green to linear peptides of protein X1 of SARS-CoV Urbani [1] | Binding of serum SARS-green to looped/cyclic peptide (PEPSCAN-ELISA) [1] | Binding of serum SARS-yellow to looped/cyclic peptide (PEPSCAN-ELISA) [1]
0.7: Binding of serum 2 to linear peptides of protein X1 of SARS-CoV Urbani [1] | Binding of serum 37 to linear peptides of protein X1 of SARS-CoV Urbani [1] | Binding of serum SARS-yellow to linear peptides of protein X1 of SARS-CoV Urbani [1] | Binding of Control serum Blood-bank to linear peptides [2] | Binding of Control serum LUMC to linear peptides [2]
2.0: Binding of a rabbit serum to linear peptides [3]
0.2: Binding of serum London to looped/cyclic peptide (PEPSCAN-ELISA) [1]

— US20070128217A1 (priority 2003, published 2007)
